Earlier results on one compound are cited in patent US20220218780A1, “Composition for Improving Vascular Endothelial Function or Improving Blood Flow in Peripheral Blood Vessels” (House Wellness Foods Corporation, priority 2018, published 2022).

The structures appear in SMILES notation.

The test system of this series is vascular endothelial function. The following applies: diabetes rat models, continuous oral administration every day, 30 mg/kg and 300 mg/kg body weight.

On to `COc1cc(/C=C/C(=O)CC(=O)/C=C/c2ccc(O)c(OC)c2)ccc1O` [curcumin], for which the “reduction in vascular endothelial function associated with diabetes” value is given as “improved”.
